Test results published in publication PMC7932555, “A diffusible signal factor of the intestine dictates Salmonella invasion through its direct control of the virulence activator HilD” (PLoS Pathogens, 2021).

System: sipB::lacZY
Test: sipB::lacZY reporter β-galactosidase assay in strains expressing wild type or mutant HilD
Type: cell-based
Conditions: 20 μM fatty acid (mix: 20 μM of each)
Text: To test the effect of mutations in hilD, we initially constructed a background Salmonella strain without chromosomal hilC, rtsA and hilD and fused sipB to lacZY to assess SPI-1 expression. hilD with a C-terminal 3XFLAG tag was cloned into pWSK29 under control of the tetRA promoter for tetracycline-inducible expression. This plasmid was subjected to site-directed mutagenesis at specific nucleotides to change selected amino acids to alanine, using the Agilent QuikChange II Site-Directed Mutagenesis kit following their protocol. Mutations were confirmed by DNA sequencing.
Salmonella strains were inoculated into LB buffered with 100 mM MOPS [3-(N-morpholino) propanesulphonic acid] pH 6.7, with necessary antibiotics, and fatty acids or control solvents to be tested. Cultures were incubated at 37° C without aeration overnight, and assays were performed using an established protocol.

[1] = strain expressing wild type HilD

How did the “repression of sipB expression” value (strain expressing HilD K293A) turn out when `CCCCCCCCCCC/C=C\CCCCCCC(=O)O` [c8-EA, cis-8-eicosenoic acid] was run?
The value was “continued to repress sipB expression”.

What about the “repression of sipB expression” value (strain expressing HilD K294A) of the same compound?
Its value is “continued to repress sipB expression”.

How did the “repression of sipB expression” value (strain expressing HilD K293A) turn out when `CCCCCCCCC/C=C\C(=O)O` [c2-DDA, cis-2-dodecenoic acid] was run?
The value was “no significant reduction”.

And the “repression of sipB expression” value (strain expressing HilD K294A)?
The value was “no significant reduction”.

What about the “repression of sipB expression” value [1] of the same compound?
Its value is 4.1 fold.

How did the “repression of sipB expression” value (strain expressing HilD K43A) turn out when `CCCCCCCC/C=C\CCCCCCCC(=O)O` [oleic acid, cis-9-octadecenoic acid] was run?
The value was “no longer had a repressive effect”.

And the “repression of sipB expression” value (strain expressing HilD K293A)?
The value was “continued to repress sipB expression”.

And the “repression of sipB expression” value (strain expressing HilD K294A)?
The value was “continued to repress sipB expression”.

What about the “repression of sipB expression” value (strain expressing HilD Q290A) of the same compound?
The value was “no longer had a repressive effect”.

And the “repression of sipB expression” value [1]?
The value was 3.7 fold.
